Laboratory results taken from US7049292B2, “Therapeutically effective peptides related to preproinsulin” (King's College London, priority 2004, dated 2006).
Values joined by “and” are separate entries in the source; they are usually repeats but may differ in a detail not shown here. Identical values can stand only once. Like-named read-outs stand apart in the source and are kept apart here.

Tests used:
[1] = test system: pathogenic (IFN-γ) CD4+ T lymphocytes in PBMCs; test: IFN-γ ELISPOT analysis of PBMCs cultured with peptide; type: cell-based, human; settings: for Prevalence of IFN-γ responses, Totals (%) / Prevalence of IFN-γ responses, Totals (responders/tested): positive response SI≧3.0; for IFN-γ response, stimulation index (SI): PBMCs, peptide 10 μM
[2] = test system: anti-inflammatory (IL-10 secreting) CD4+ T lymphocytes in PBMCs; type: cell-based, human; settings: for IL-10 response, stimulation index (SI): PBMCs, peptide 10 μM
[3] = T1DM patients with HLA-DR4 alleles
[4] = T1DM patients with non-DR4 alleles
[5] = patient #24, T1DM with HLA-DR4 alleles

LAKEWQALCAYQAEPNTCATAQGEGNIK [709–36, IA-2 peptide eluted from HLA-DR4]
Prevalence of IFN-γ responses, Totals (%) [1, 3]: (12) % | Prevalence of IFN-γ responses, Totals (responders/tested) [1, 3]: 3/25 | Prevalence of IFN-γ responses, Totals (%) [1, 4]: (0) % | Prevalence of IFN-γ responses, Totals (responders/tested) [1, 4]: 0/11 | Prevalence of IFN-γ responses, Totals (%) ([1]; non-diabetic control subjects): (0) % | Prevalence of IFN-γ responses, Totals (responders/tested) ([1]; non-diabetic control subjects): 0/14 | IFN-γ response, stimulation index (SI) ([1]; patient #6, T1DM with HLA-DR4 alleles): 9.2 | IFN-γ response, stimulation index (SI) ([1]; patient #19, T1DM with HLA-DR4 alleles): 5.0 | IFN-γ response, stimulation index (SI) [1, 5]: 10.5 | Prevalence of IL-10 responses, Totals (responders/tested) [2]: 2/17 and 1/7 | IL-10 response, stimulation index (SI) ([2]; non-diabetic control subject C4): 3.6 | IL-10 response, stimulation index (SI) ([2]; non-diabetic control subject C6): 3.2 | IL-10 response, stimulation index (SI) ([2]; non-diabetic control subject C13): 3.8 | Prevalence of IL-10 responses, Totals (responders/tested) ([2]; non-diabetic control subjects, positive response SI≧3.0): 3/14 | IL-10 response, stimulation index (SI) ([2]; patient #5, T1DM with HLA-DR4 alleles): 3.5 | IL-10 response, stimulation index (SI) [2, 5]: 9.0 | IL-10 response, stimulation index (SI) ([2]; patient #27, T1DM with non-DR4 alleles): 7.0
